Source: ChEMBL document CHEMBL3352142, “Discovery of a new class of cinnamyl-triazole as potent and selective inhibitors of aromatase (cytochrome P450 19A1)” (Bioorg Med Chem Lett, 2014)

Columns and labels:
Aromatase [1] = target: T1, Aromatase (Homo sapiens, UniProt P11511); experiment: Irreversible inhibition of recombinant human CYP19A1 assessed as inhibition of DBF conversion to fluorescein by-product by fluorometry
T1 sequence (P11511 whole entry): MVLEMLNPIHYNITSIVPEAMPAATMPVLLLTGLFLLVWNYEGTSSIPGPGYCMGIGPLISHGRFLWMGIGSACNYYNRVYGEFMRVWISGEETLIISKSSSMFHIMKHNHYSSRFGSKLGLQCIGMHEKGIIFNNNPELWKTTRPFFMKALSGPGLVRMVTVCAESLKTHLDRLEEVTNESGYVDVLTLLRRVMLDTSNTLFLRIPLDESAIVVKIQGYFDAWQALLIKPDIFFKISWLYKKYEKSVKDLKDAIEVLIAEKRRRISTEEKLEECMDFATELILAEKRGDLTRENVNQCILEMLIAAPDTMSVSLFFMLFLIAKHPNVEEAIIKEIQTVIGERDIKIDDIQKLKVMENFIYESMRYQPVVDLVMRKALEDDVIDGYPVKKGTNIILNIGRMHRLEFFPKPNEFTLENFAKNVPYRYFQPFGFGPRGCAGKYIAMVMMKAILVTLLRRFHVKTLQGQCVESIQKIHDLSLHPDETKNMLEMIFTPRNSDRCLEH

Aromatase [2] = target: T1, Aromatase; experiment: Reversible inhibition of recombinant human CYP19A1 assessed as inhibition of DBF conversion to fluorescein by-product by fluorometry
Aromatase [3] = target: T1, Aromatase
Description: Inhibition of recombinant human CYP19A1 assessed as inhibition of DBF conversion to fluorescein by-product by fluorometry

Q: With `CCOC(=O)c1nnn(Cc2ccccc2)c1-c1ccccc1` as the compound, how does the Ki (Aromatase [1]) read?
A: 1410 nM

Q: Which Ki (Aromatase [2]) does the source give for `CCOC(=O)c1nnn(Cc2ccccc2)c1-c1ccc(Br)cc1` here?
A: 640 nM

Q: For `CCOC(=O)c1nnn(Cc2cccc(Br)c2)c1-c1ccc(Br)cc1`, which Ki (Aromatase [2]) is on record?
A: 20 nM

Q: Which Ki (Aromatase [3]) does the source give for `CCOC(=O)c1nnn(Cc2ccccc2)c1-c1ccc(C)cc1` here?
A: 710 nM

Q: For `CCOC(=O)c1nnn(Cc2ccccc2)c1-c1ccc2c(c1)OCO2`, which Ki (Aromatase [3]) is on record?
A: 710 nM

Q: With `CCOC(=O)c1nnn(Cc2ccccc2)c1-c1ccc(Cl)cc1` as the compound, how does the Ki (Aromatase [3]) read?
A: 360 nM

Q: For `CCOC(=O)c1nnn(Cc2cccc(Br)c2)c1-c1ccccc1`, which Ki (Aromatase [3]) is on record?
A: 150 nM
